We go through 1 molecule from patent US5686448A (priority 1995, dated 1997).

Data set [1] concerns Flow 1000 cells (foreskin cells). The following applies: 25 mg/ml, 48 hours. Here is the method: (§1) Healthy confluent monolayer cell cultures were overlaid with 1 ml of the drug and incubated for 48 hours at 37° C. and then stained. Cell cultures with maintenance media were used as controls.
In data set [2] the test system is HSV-2 (333 strain). Nature of the data set: HMB plaque inhibition in infected Vero cells (Exp. 1M-1P). In kind it is cell-based. Here is the method: In this experiment, 25 mg/ml HMB was tested on Vero cells infected with HSV-2. The virus control cultures, without HMB, had 705 plaque.
The number of plaque on the virus control was about 10 to 12 plaque.
In this experiment, 25 mg/ml, 20 mg/ml, and 15 mg/ml of HMB concentrations were tested on Vero cells infected with HSV-2. […] The experimental flasks had as many, or more, plaque as the control, with an average of 154 plaque for the control and 169 plaque for the HMB-treated flasks.

Data set [3] concerns RK-13 cells. Particulars: 25 mg/ml, 48 hours.
Data set [4] deals with Vero cells. The following applies: 25 mg/ml, 48 hours. The protocol: To determine the toxicity level of the drug, all three cell lines--RK-13, Vero cells, and WISH cells--were used. In the toxicity experiments, the effect of the drug on the uninfected cell for a range of periods of time was determined. Accordingly, cultures were incubated with and without the drug. The time of exposure was from one to seven hours. A comparison was then made between the drug tested cultures and the control cultures. After each period of incubation, the cells were washed and fresh media was added to the cells. The cell viability was then determined by dividing these cultures and having them grow into new cell cultures.
At the end of the incubation period, the cultures were washed twice with sterile PBS (Dulbecco). Fresh medium was added to each of the cultures. The cultures were then incubated for an additional 24 hours.
as §1

For the molecule `C[N+](C)(C)CCCCCC[N+](C)(C)C` [HMB, hexamethonium bromide], the toxicity result in data set [1] is on record as “no toxicity”; in data set [3], “slight toxicity”; in data set [4], “no toxicity”. In data set [2] (Exp. 1M, 25 mg/ml), the cell layer appearance entry is recorded as “thin cell layer”. For the same molecule, in data set [2] (Exp. 1N, 20 mg/ml, control about 10 to 12), the plaque inhibition result is “complete inhibition of plaque”. Besides, the effect on plaque result in data set [2] (Exp. 1O, 15 mg/ml) is given as “did not have any effect”. Moreover, in data set [2] (Exp. 1O, 15 mg/ml, control 154), the average plaque number amounted to 169 plaque. The plaque formation entry is listed as “no plaque” in data set [2] (Exp. 1O, 20 mg/ml) and “no plaque” in data set [2] (Exp. 1O, 25 mg/ml, most likely due to toxicity). Also, the toxicity to monolayer entry in data set [2] (Exp. 1O, 25 mg/ml) is listed as “toxic to the monolayer”. Besides, in data set [2] (HMB, Example No. 1 summary), the “inhibition of in vitro replication” value is “inhibit the in vitro replication of HSV-1 and HSV-2”.
